Laboratory results as given in patent US5516797A, “Immunosuppressive compounds” (Vertex Pharmaceuticals, Incorporated, priority 1994, dated 1996).

Key:
[1] = target: T1, FK-506 binding protein (FKBP) (Homo sapiens, UniProt P62942); assay: Inhibition of PPIase (rotamase) enzyme activity of FKBP (apparent Ki); type: biochemical; conditions: substrate N-succinylAla-Ala-Pro-Phe-p-nitroanilide, chymotrypsin-coupled
In short: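 Cis-trans isomerization of N-succinyl-Ala-Ala-Pro-Phe-p-nitroanilide was followed spectrophotometrically in a chymotrypsin-coupled assay releasing 4-nitroanilide from the trans substrate. Apparent Ki came from the change in first-order rate constant across inhibitor concentrations.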

[2] = target: T1, FK-506 binding protein (FKBP); assay: Competitive binding to FKBP against [3H]dihydro-FK-506 (apparent Kd); conditions: competition with [3H]dihydro-FK-506
[3] = test system: human peripheral blood lymphocytes; assay: Mitogenesis assay PMA: inhibition of proliferation of human PBLs; type: cell-based; conditions: Lymphocyte, PMA (10 ng/ml) plus ionomycin (250 ng/ml), 48 h incubation
In short: (§1)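 Human PBLs from normal donors, isolated over Histopaque 1077 and cultured in RPMI 1640 with 10% heat-inactivated FCS, were stimulated with PMA or OKT3 mitogen in the presence of compound (DMSO stocks). After 48 h at 37 °C and 5% CO2, cells were pulsed with 1 μCi ³H-thymidine and harvested 24 h later for scintillation counting.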

[4] = test system: human peripheral blood lymphocytes; assay: Mitogenesis assay OKT3: inhibition of proliferation of human PBLs; type: cell-based; conditions: Lymphocyte, OKT3 (10^-4 dilution final), 48 h incubation
In short: as §1

[5] = test system: PBLs stimulated with LB human viral transformed B lymphoblastoid cells; assay: MLR bioassay LB: inhibition of proliferation in mixed lymphocyte reaction; type: cell-based; conditions: Lymphoblastoid cell, pulsed on day 6, harvested 24 h later
In short: (§2)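 Fresh human PBLs (5×10^4) stimulated with 5×10^3 Mitomycin C-treated allogeneic EBV-transformed B lymphoblastoid cells in RPMI 1640 with 10% FCS, with or without compound (DMSO stocks). Pulsed on day 6, harvested 24 h later and counted.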

[6] = test system: PBLs stimulated with JVM human viral transformed B lymphoblastoid cells; assay: MLR bioassay JVM: inhibition of proliferation in mixed lymphocyte reaction; type: cell-based; conditions: Lymphoblastoid cell, pulsed on day 6, harvested 24 h later
In short: as §2

[7] = test system: human peripheral blood lymphocytes; assay: Human PBL + OKT3 proliferation (Table 5, assay 1); type: cell-based; conditions: Lymphocyte, [3H]TdR incorporation, estimated
Description: 1) Assay similar to Yoshimura, N. et al., Transplantation 47:356-359 (1989). Assay uses fresh human peripheral blood lymphocytes isolated by Ficoll-Hypaque density centrifugation, stimulated bythe OKT3 antibody (anti-CD3) which stimulates via interaction with CD3. Stimulation is measured by incorporation of radioactive thymidine [(^3 H)TdR] into proliferating cells, with an uninhibited control signal of 48,000-75,000 cpm. IC50 values are estimated from inhibitions of proliferation observed at various drug concentrations.

[8] = test system: T-cell clone stimulated with antibody to TCR and CD2; assay: T-Cell Hybridoma + TCR/CD2 proliferation (Table 5, assay 2); type: cell-based; conditions: [3H]TdR incorporation, estimated
Description: 2) Assay similar to above, but using T-cell clone stimulated with antibody to the T-cell receptor (TCR) and antibody to CD2. Stimulation is measured by incorporation of radioactive thymidine [(^3 H)TdR] into proliferating cells, with an uninhibited control signal of 23,000 cpm. IC50 values are estimated from inhibitions of proliferation observed at various drug concentrations.

T-cell hybridoma = assay: Apoptosis: activation-induced (anti-CD3) cell death in T-cell hybridoma (Table 5, assay 3); type: cell-based; conditions: for Apoptosis (activation-induced cell death): at 1 μg/ml
From the text: 3) Assay according to Shi, Y. et al., Nature 339:625-626 (1989). The assay uses a T-cell hybridoma similar to that described. The assay measures activation-induced (anti-CD3) cell death (evaluated by counting viable cells after staining as described) in a T-cell hybridoma that mimics the effect known to occur in immature thymocytes.

CTLL cells = assay: CTLL Proliferation + IL-2 (Table 5, assay 4); type: cell-based, murine; conditions: for IC50: Mus musculus, CTLL, exogenous IL-2, [3H]TdR incorporation
Description: 4) Assay according to DuMont, F. et al., J. Immunol. 144:251-258 (1990). The assay measures the stimulation of CTLL cells in response to IL-2. Proliferation is measured by incorpoation of (^3 H)TdR. […] In this assay, exogenous IL-2 is provided to overcome this block.
Fresh peripheral blood lymphocytes (PBLs) from LeukoPak cells or whole blood from random normal blood donors (tested HIV-negative and hepatitis negative) are isolated and separated by density centrifugation over Histopaque 1077 (Sigma Chemical Co., St. Louis, Mo.). The murine CTLL cytotoxic T cell line and the human Jurkat T cell line are from ATCC (CTLL-2 ATCC TIB214, JURKAT CLONE E6-1 ATCC TIBl52). The human allogeneic B cell lines used for activation of the fresh PBLs are EBV-transformed lymphocytes from normal healthy adult donors with two completely different HLAhaplotypes. All cell lines were routinely tested for the presence of Mycolasma contamination using the GibcoMycotect test kit and are Mycolasma-free. Culture medium consksts of RPMI 1640 (Gibco, Grand Island, N.Y.) containing penicillin (50 U/ml) and streptomycin (50 μg/ml), L-glutamine 2 mM, 2 mercaptoethanol (5×10^-5), 10% heat-inactivated FCS and 10 mM HEPES.

CTLLs = conditions: cited from earlier work
IL-2 production = conditions: in vitro; cited from earlier work
mixed lymphocyte culture = conditions: in vitro; cited from earlier work
cytotoxic T-cell = conditions: in vitro; cited from earlier work
binding protein (FKBP) = conditions: cited from earlier work
PPIase = conditions: cited from earlier work

T1 sequence (P62942 whole entry): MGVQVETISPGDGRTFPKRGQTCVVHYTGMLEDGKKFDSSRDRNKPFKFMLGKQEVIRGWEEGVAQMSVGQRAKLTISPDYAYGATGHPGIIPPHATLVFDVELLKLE

| Compound | Ki [1] [µM] | Kd [2] [µM] | IC50 [3] [µM] | IC50 [4] [µM] | IC50 [5] [µM] | IC50 [6] [µM] | IC50 [7] [mg/L] | IC50 [8] [mg/L] | activity in activation-induced cell death assay (in words) (T-cell hybridoma) | Apoptosis (activation-induced cell death) (T-cell hybridoma) | activity in CTLL / IL-2 assay (in words) (CTLL cells) | IC50 (CTLL cells) [mg/L] | IL-2 dependent proliferation of the CTLLs (CTLLs) | inhibition of IL-2 production, concentration relative to cyclosporin A (IL-2 production) | inhibition of mixed lymphocyte culture response, concentration relative to cyclosporin A (mixed lymphocyte culture) | inhibition of cytotoxic T-cell generation, concentration relative to cyclosporin A (cytotoxic T-cell) | binding to FKBP (binding protein (FKBP)) | inhibition of PPIase activity (PPIase) |
| --- | --- | --- | --- | --- | --- | --- | --- | --- | --- | --- | --- | --- | --- | --- | --- | --- | --- | --- |
| COc1ccc(C=CCCOC(=O)[C@@H]2CCCCN2C(=O)C(=O)c2cc(OC)c(OC)c(OC)c2)cc1 [Compound 90] | 0.011 | 0.6 | 8 | > 10 | > 10 | > 10 |  |  |  |  |  |  |  |  |  |  |  |  |
| O=C(C(=O)N1CCCC[C@H]1C(=O)OCc1ccccc1)c1ccc2ccccc2c1 [Compound 47] | 1.5 | 0.3 | > 10 | > 10 | > 10 | > 10 |  |  |  |  |  |  |  |  |  |  |  |  |
| O=C(C(=O)N1CCCC[C@H]1C(=O)OCCCCc1ccccc1)c1ccc(I)cc1 [Compound 81] | 0.8 | 0.25 | 7 | > 10 | > 10 | > 10 |  |  |  |  |  |  |  |  |  |  |  |  |
| O=C(C(=O)N1CCCC[C@H]1C(=O)OCCCCc1ccccc1)C1CCCCC1 [Compound 98] | 0.08 | 0.18 | > 10 | > 10 | > 10 | > 10 |  |  |  |  |  |  |  |  |  |  |  |  |
| CO[C@H]1C[C@@H]2CC[C@@H](C)[C@@](O)(O2)C(=O)C(=O)N2CCCC[C@H]2C(=O)O[C@H]([C@H](C)C[C@@H]2CC[C@@H](O)[C@H](OC)C2)CC(=O)[C@H](C)/C=C(\C)[C@@H](O)[C@@H](OC)C(=O)[C@H](C)C[C@H](C)/C=C/C=C/C=C/1C [Rapamycin] |  |  |  |  |  |  | < 1 | < 1 | inactive | Inactive | active | ~0.01 | inhibits IL-2 dependent proliferation of the CTLLs |  |  |  |  |  |
| O=C(C(=O)N1CCCC[C@H]1C(=O)OCc1ccccc1)c1cccc2ccccc12 [Compound 48] | 1 | 2 | > 10 | > 10 | > 10 | > 10 |  |  |  |  |  |  |  |  |  |  |  |  |
| C=CC[C@@H]1/C=C(\C)C[C@H](C)C[C@H](OC)[C@H]2O[C@@](O)(C(=O)C(=O)N3CCCC[C@H]3C(=O)O[C@H](/C(C)=C/[C@@H]3CC[C@@H](O)[C@H](OC)C3)[C@H](C)[C@@H](O)CC1=O)[C@H](C)C[C@@H]2OC [FK-506] |  |  |  |  |  |  | < 1 | < 1 | inhibit this cell death | Blocks |  | > 1 | do not | 100 times lower concentration than cyclosporin A | 100 times lower concentration than cyclosporin A | 100 times lower concentration than cyclosporin A | binds to a binding protein (FKBP) distinct from cyclophilin | inhibits PPIase activity |
| COc1cc(C(=O)C(=O)N2CCCC[C@H]2C(=O)OCCCCCCc2ccccc2)cc(OC)c1OC [Compound 71] | 0.1 | 0.05 | 5 | 5.5 | 7.5 | 8 |  |  |  |  |  |  |  |  |  |  |  |  |
| O=C(C(=O)N1CCCC[C@H]1C(=O)OCc1ccccc1)c1cccc(OCc2ccccc2)c1 [Compound 53] | 0.5 | 0.2 | > 10 | 8 | > 10 | > 10 |  |  |  |  |  |  |  |  |  |  |  |  |
